ChEMBL document CHEMBL5523671, “ω-(5-Phenyl-2H-tetrazol-2-yl)alkyl-substituted glycine amides and related compounds as inhibitors of the amine oxidase vascular adhesion protein-1 (VAP-1)” (Bioorg Med Chem, 2024)
pIC50: −log10 of the molar value.

Columns and labels:
[1] = target: T1, Amine oxidase [copper-containing] 3 (Homo sapiens) (UniProt Q16853); experiment: Inhibition of human plasma VAP-1 using 6-(5-Pheny1-2H-tetrazol-2-yl)hexan-1-amine as substrate at 10 uM preincubated with enzyme for 15 mins followed by substrate addition measured after 120 mins by UV-HPLC analysis relative to control; format: cell-free; conditions: time 135.0 min
T1 sequence (whole entry): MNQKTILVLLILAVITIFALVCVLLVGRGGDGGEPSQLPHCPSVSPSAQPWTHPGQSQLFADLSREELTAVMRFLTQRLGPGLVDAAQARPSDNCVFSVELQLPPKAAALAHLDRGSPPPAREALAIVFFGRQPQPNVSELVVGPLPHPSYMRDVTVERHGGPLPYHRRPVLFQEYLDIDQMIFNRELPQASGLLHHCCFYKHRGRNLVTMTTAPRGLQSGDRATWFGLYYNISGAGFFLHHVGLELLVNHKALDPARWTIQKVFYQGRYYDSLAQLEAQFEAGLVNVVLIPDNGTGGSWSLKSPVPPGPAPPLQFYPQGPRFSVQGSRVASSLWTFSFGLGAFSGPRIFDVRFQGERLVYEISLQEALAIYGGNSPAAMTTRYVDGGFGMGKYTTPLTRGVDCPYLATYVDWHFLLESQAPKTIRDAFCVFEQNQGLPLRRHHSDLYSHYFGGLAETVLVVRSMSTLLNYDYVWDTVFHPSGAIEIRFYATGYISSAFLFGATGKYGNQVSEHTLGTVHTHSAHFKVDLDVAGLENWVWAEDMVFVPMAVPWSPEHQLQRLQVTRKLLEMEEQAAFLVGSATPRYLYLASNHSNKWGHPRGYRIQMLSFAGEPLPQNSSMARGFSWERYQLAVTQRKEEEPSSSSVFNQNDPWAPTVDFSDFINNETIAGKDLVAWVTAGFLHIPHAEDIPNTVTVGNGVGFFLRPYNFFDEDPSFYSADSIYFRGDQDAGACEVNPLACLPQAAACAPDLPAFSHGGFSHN

[2] = target: T2, VAP-1 (amine oxidase [copper-containing] 3) (Bos taurus, UniProt Q9TTK6); experiment: Stability of compound assessed as bovine plasma VAP-1 mediated drug degradation by measuring parent compound remaining at 10 uM incubated for 30 mins by HPLC-MS analysis; format: ADME, cell-free; conditions: cattle, bovine plasma VAP-1 (amine oxidase [copper-containing] 3), read-out: Stability
T2 sequence (Q9TTK6 whole entry): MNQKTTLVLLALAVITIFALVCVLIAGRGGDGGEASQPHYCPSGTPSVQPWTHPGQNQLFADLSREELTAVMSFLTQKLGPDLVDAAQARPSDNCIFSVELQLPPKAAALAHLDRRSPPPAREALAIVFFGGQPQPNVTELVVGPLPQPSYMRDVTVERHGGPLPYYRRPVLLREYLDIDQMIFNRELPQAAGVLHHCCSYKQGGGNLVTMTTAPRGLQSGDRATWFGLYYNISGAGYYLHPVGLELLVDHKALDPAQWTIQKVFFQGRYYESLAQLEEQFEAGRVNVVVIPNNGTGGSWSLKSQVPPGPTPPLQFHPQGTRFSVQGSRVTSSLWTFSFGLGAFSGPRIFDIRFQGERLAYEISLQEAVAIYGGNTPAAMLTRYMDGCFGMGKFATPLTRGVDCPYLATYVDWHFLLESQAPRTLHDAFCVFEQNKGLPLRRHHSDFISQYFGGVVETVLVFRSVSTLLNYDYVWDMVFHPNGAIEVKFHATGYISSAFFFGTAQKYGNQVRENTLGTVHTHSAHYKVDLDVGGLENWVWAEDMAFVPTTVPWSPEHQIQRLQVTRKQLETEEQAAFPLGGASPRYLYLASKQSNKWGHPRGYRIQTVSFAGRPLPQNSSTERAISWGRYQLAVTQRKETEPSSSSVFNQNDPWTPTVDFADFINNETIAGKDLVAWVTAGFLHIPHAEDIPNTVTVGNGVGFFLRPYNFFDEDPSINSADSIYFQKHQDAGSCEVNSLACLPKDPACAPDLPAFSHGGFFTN

[3] = target: T2, VAP-1 (amine oxidase [copper-containing] 3); experiment: Stability of compound assessed as bovine plasma VAP-1 mediated drug degradation by measuring parent compound remaining at 10 uM incubated for 120 mins by HPLC-MS analysis; format: ADME, cell-free; conditions: cattle, bovine plasma VAP-1 (amine oxidase [copper-containing] 3), read-out: Stability
[4] = target: T2, VAP-1 (amine oxidase [copper-containing] 3); experiment: Stability of compound assessed as bovine plasma VAP-1 mediated drug degradation by measuring parent compound remaining at 10 uM incubated for 15 mins by HPLC-MS analysis; format: ADME, cell-free; conditions: cattle, bovine plasma VAP-1 (amine oxidase [copper-containing] 3), read-out: Stability
[5] = target: T3, Amine oxidase [copper-containing] 3 (Bos taurus, UniProt Q9TTK6); experiment: Stability of compound assessed as bovine plasma VAP-1 mediated drug degradation by measuring formation of aldehyde metabolite at 1 to 10 uM incubated for 60 to 120 mins by HPLC-MS analysis; format: ADME, cell-free; conditions: cattle, dose lower 1 µM, time lower 60 min, dose upper 10 µM, time upper 120 min
T3 sequence (Q9TTK6 whole entry): T2 sequence (Q9TTK6 whole entry)

[6] = target: T4, Amine oxidase [copper-containing] 3 (Homo sapiens, UniProt Q16853); experiment: Inhibition of human plasma VAP-1 using 6-(5-Pheny1-2H-tetrazol-2-yl)hexan-1-amine as substrate preincubated with enzyme for 15 mins followed by substrate addition measured after 120 mins by UV-HPLC analysis; format: cell-free
T4 sequence (Q16853 whole entry): T1 sequence (whole entry)

[7] = Selectivity index, ratio of IC50 for human plasma VAP-1 to IC50 for bovine plasma VAP-1
[8] = target: T1, Amine oxidase [copper-containing] 3 (Homo sapiens); experiment: Inhibition of human plasma VAP-1 using 6-(5-Pheny1-2H-tetrazol-2-yl)hexan-1-amine as substrate at 100 uM preincubated with enzyme for 15 mins followed by substrate addition measured after 120 mins by UV-HPLC analysis relative to control; format: cell-free; conditions: time 135.0 min
[9] = target: Amine oxidase [copper-containing] 1 (diamine oxidase, Sus scrofa) (UniProt Q9TRC7); experiment: Inhibition of porcine kidney DAO using 6-(5-phenyltetrazol-2-yl)hexan-1-amine as substrate at 10 uM preincubated with enzyme for 15 mins followed by substrate addition measured after 30 mins by UV-HPLC analysis relative to control; conditions: time 45.0 min
Amine oxidase [copper-containing] 1 (diamine oxidase, Sus scrofa), sequence (Q9TRC7 whole entry, looked up): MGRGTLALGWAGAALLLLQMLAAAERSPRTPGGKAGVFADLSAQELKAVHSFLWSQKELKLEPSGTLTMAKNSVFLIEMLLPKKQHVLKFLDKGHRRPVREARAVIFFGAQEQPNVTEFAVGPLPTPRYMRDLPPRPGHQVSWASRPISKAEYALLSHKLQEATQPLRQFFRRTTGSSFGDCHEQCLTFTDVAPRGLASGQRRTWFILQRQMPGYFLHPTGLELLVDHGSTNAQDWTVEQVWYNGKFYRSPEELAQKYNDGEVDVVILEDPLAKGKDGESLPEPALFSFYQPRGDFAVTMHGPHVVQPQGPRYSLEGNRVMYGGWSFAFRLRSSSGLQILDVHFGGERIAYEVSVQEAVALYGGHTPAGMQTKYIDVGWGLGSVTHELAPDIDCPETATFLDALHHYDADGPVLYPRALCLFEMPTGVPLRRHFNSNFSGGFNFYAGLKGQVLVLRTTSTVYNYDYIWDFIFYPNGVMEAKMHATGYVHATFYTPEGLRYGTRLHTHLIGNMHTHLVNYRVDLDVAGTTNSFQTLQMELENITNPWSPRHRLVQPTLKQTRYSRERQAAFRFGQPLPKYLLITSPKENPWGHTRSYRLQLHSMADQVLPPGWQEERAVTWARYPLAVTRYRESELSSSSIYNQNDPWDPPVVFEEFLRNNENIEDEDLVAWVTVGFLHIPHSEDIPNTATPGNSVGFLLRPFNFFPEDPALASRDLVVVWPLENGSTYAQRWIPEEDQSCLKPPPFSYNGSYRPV

[10] = target: T2, VAP-1 (amine oxidase [copper-containing] 3); experiment: Stability of compound assessed as bovine plasma VAP-1 mediated drug degradation by measuring parent compound remaining at 10 uM incubated for 60 mins by HPLC-MS analysis; format: ADME, cell-free; conditions: cattle, bovine plasma VAP-1 (amine oxidase [copper-containing] 3), read-out: Stability

| SMILES | inhibition [1] | remaining at 0.5 h, 10 µM [2] | remaining at 2 h, 10 µM [3] | remaining at 0.25 h, 10 µM [4] | Stability [5] | pIC50 [6] | Ratio IC50 [7] | inhibition [8] | inhibition [9] | remaining at 1 h, 10 µM [10] |
| --- | --- | --- | --- | --- | --- | --- | --- | --- | --- | --- |
| N#Cc1ccc(-c2nnn(CCCCCCNC(=O)CN)n2)cc1 | 17% | 79% | 29% | 85% | Unstable | 4.49 | 2 | – | – | – |
| NCC(=O)NCCCCCCn1nnc(-c2ccccc2)n1 | – | 58% | < 5% | 80% | Unstable | < 4.00 | – | 23% | – | – |
| NCC(=O)NCc1cccc(-c2ccccc2)c1 | – | 85% | 23% | 92% | Unstable | – | – | – | 39% | 66% |
